Earlier results, collected in US6994842B2, “Aerogel powder therapeutic agents” (Aspen Aerogels, Inc., priority 2000, dated 2006).

SMILES | solubility in water | solubility in supercritical carbon dioxide (supercritical carbon dioxide)
CCC(=O)C(CC(C)N(C)C)(c1ccccc1)c1ccccc1 (stereo not drawn) [Methadone] | 12 g/100 mL | –
O=C1CC[C@@]2(O)[C@H]3Cc4ccc(O)c5c4[C@@]2(CCN3CC2CC2)[C@H]1O5 [free base Naltrexone, Naltrexone] | not that soluble | highly soluble
